In patent publication US20250340570A1, “COMPOSITIONS USEFUL FOR MODULATING SPLICING” (Skyhawk Therapeutics, Inc., priority 2022, published 2025) one finds IC50 data, which are given here for 25 molecules.

pIC50: −log10 of the molar value.

For test [1], the system named is ATXN3 transcripts containing exon 4. The experiment in a line: ATXN3 quantitative splicing assay (qPCR, E4E5 transcripts containing exon 4). In kind it is cell-based. The conditions noted are these: Human neuroblastoma SK-N-MC cells, 24 h treatment, qPCR primers/probe E4E5. How it is done: Human neuroblastoma SK-N-MC cells were plated in 384-well plates at 20,000 cells/well. Twenty-four hours after plating, cells were treated with compounds for 24 h at appropriate concentrations ranging from 30 μM to 0.6 nM (0.3% DMSO). Treated cells were lysed in 15 μL of lysis buffer, and cDNA was synthesized using the Fast Advanced Cells-to-Ct kit. Two μL of each cDNA was used in qPCR reactions to confirm the exon 4 skipped transcripts of ATXN3. A second set of primers/probe E4E5 was used to detect the transcripts containing exon 4. The third set of primers/probe E8E9 was used to detect total gene level of ATXN3. The qPCR reactions were prepared in 384-well plates in 10.L volume, using TaqMan™ Fast Advanced Master Mix with primers and probes shown in the table below. Reactions were run in a Quant Studio 6 qPCR instrument with default settings.
The primers and probes are listed below in Table 5.

The subject of another test is total ATXN3 protein. Briefly: ATXN3 total protein assay (Mesoscale Discovery). The settings on record: Human neuroblastoma SK-N-MC cells, 48 hours incubation, MSD assay. The test is classed as cell-based. The procedure:
Human neuroblastoma SK-N-MC cells were seeded at 10,000 cells/well in 384 well plates one day prior to compound treatment. The concentrations of compounds were tested at appropriate doses ranging from 30 µM to 0.6 nM. After incubation for 48 hours, the cells were lysed with 25.L of lysis buffer containing protease inhibitors, and total ATXN3 protein levels were assessed by Mesoscale Discovery (MSD) assay developed with one pair of and-ATXN3 antibodies. The capture and detect antibodies were raised in mouse and rabbit respectively. Anti-rabbit MSD-ST antibody was used for secondary antibody.
ATXN3 recombinant protein was used for standards. The readouts were captured with 35.L of MSD read buffer and multi-array 384-well high binding plates.

`Cc1csc2c(NCc3ccncc3)snc12` [Compound 1, [(4-pyridyl)methyl](8-methyl-3,6-dithia-2-azabicyclo[3.3.0]octa-1,4,7-trien-4-yl)amine]: the negative-log IC50 (pIC50) (in test [1]; with total ATXN3 protein) was 4.40 to 5.00 throughout.

With `Cc1csc2c(NCc3ccccc3)snc12` [Compound 3, (benzyl)(8-methyl-3,6-dithia-2-azabicyclo[3.3.0]octa-1,4,7-trien-4-yl)amine], the negative-log IC50 (pIC50) (in test [1]; with total ATXN3 protein) was 4.40 to 5.00 in each case.

Turning to `Cc1csc2c(NCc3ccco3)snc12` [Compound 4, (furfuryl)(8-methyl-3,6-dithia-2-azabicyclo[3.3.0]octa-1,4,7-trien-4-yl)amine], the pIC50 (in test [1]; in the test on total ATXN3 protein) was 4.40 to 5.00 each time.

On to `Cc1c(C[C@H](C)N)sc2c(NCc3ccccc3)snc12` [Compound 5, 7-[(S)-2-aminopropyl]-4-benzylamino-8-methyl-3,6-dithia-2-azabicyclo[3.3.0]octa-1,4,7-triene], for which the pIC50 in test [1] was 5.00 to 5.30; in the test with total ATXN3 protein it was 5.30 to 6.30.

Take `Cc1c(C[C@H](C)N)sc2c(NCc3ccco3)snc12` [Compound 6, 7-[(S)-2-aminopropyl]-4-(furfurylamino)-8-methyl-3,6-dithia-2-azabicyclo[3.3.0]octa-1,4,7-triene]: the negative-log IC50 (pIC50) (in test [1]; with total ATXN3 protein) was 5.30 to 6.30 in each case.

Take `Cc1c(C[C@H](C)N)sc2c(NCc3cccs3)snc12` [Compound 7, 7-[(S)-2-aminopropyl]-8-methyl-4-thenylamino-3,6-dithia-2-azabicyclo[3.3.0]octa-1,4,7-triene]: the pIC50 (in test [1]; in the test with total ATXN3 protein) was 5.30 to 6.30 in each case.

As to `Cc1c(C[C@@H](N)CC2CC2)sc2c(NCc3cccs3)snc12` [Compound 8, 7-[(S)-2-amino-3-cyclopropylpropyl]-8-methyl-4-thenylamino-3,6-dithia-2-azabicyclo[3.3.0]octa-1,4,7-triene], the negative logarithm of the IC50 (pIC50) (in test [1]; with total ATXN3 protein) was 5.00 to 5.30 in each case.

`Cc1c(C[C@@H](N)CC2CC2)sc2c(NCc3ccco3)snc12` [Compound 9, 7-[(S)-2-amino-3-cyclopropylpropyl]-4-(furfurylamino)-8-methyl-3,6-dithia-2-azabicyclo[3.3.0]octa-1,4,7-triene]: the negative-log IC50 (pIC50) (in test [1]; in the test on total ATXN3 protein) was 5.30 to 6.30 throughout.

For the molecule `Cc1c(C[C@@H](N)CF)sc2c(NCc3cccs3)snc12` [Compound 10, 7-[(R)-2-amino-3-fluoropropyl]-8-methyl-4-thenylamino-3,6-dithia-2-azabicyclo[3.3.0]octa-1,4,7-triene], the pIC50 (in test [1]; in the test on total ATXN3 protein) was 5.30 to 6.30 in each case.

Consider `C[C@H](N)Cc1sc2c(NCc3cccs3)snc2c1Cl` [Compound 17, 7-[(S)-2-aminopropyl]-8-chloro-4-thenylamino-3,6-dithia-2-azabicyclo[3.3.0]octa-1,4,7-triene], for which the pIC50 in test [1] is 5.30 to 6.30; with total ATXN3 protein, 6.30 to 7.00.

Regarding `C[C@H](N)Cc1sc2c(NCc3cccs3)snc2c1Br` [Compound 18, 7-[(S)-2-aminopropyl]-8-bromo-4-thenylamino-3,6-dithia-2-azabicyclo[3.3.0]octa-1,4,7-triene], the pIC50 (in test [1]; in the test on total ATXN3 protein) was 6.30 to 7.00 throughout.

Regarding `C[C@H](N)Cc1sc2c(NCc3cccs3)snc2c1C#N` [Compound 19, 7-[(S)-2-aminopropyl]-4-thenylamino-3,6-dithia-2-azabicyclo[3.3.0]octa-1,4,7-triene-8-carbonitrile], the pIC50 (in test [1]; with total ATXN3 protein) was 5.30 to 6.30 each time.

As for `C[C@H](N)Cc1sc2c(NCc3cccs3)snc2c1C1CC1` [Compound 20, 7-[(S)-2-aminopropyl]-8-cyclopropyl-4-thenylamino-3,6-dithia-2-azabicyclo[3.3.0]octa-1,4,7-triene], the pIC50 (in test [1]; with total ATXN3 protein) was 4.40 to 5.00 each time.

Regarding `C=Cc1c(C[C@H](C)N)sc2c(NCc3cccs3)snc12` [Compound 21, 5-[(2S)-2-aminopropyl]-6-ethenyl-N-(thiophen-2-ylmethyl) thieno[3,2-c][1,2]thiazol-3-amine], the negative-log IC50 (pIC50) (in test [1]; with total ATXN3 protein) was 4.40 to 5.00 throughout.

For `C[C@H](N)Cc1sc2c(NCc3ccco3)snc2c1Cl` [Compound 23, 7-[(S)-2-aminopropyl]-8-chloro-4-(furfurylamino)-3,6-dithia-2-azabicyclo[3.3.0]octa-1,4,7-triene], the pIC50 (in test [1]; in the test on total ATXN3 protein) was 6.30 to 7.00 in each case.

Turning to `C[C@H](N)Cc1sc2c(NCc3ccco3)snc2c1Br` [Compound 24, 7-[(S)-2-aminopropyl]-8-bromo-4-(furfurylamino)-3,6-dithia-2-azabicyclo[3.3.0]octa-1,4,7-triene], the negative-log IC50 (pIC50) (in test [1]; in the test with total ATXN3 protein) was 6.30 to 7.00 in each case.

`C[C@H](N)Cc1sc2c(NCc3ccco3)snc2c1O` [Compound 25, 7-[(S)-2-aminopropyl]-4-(furfurylamino)-3,6-dithia-2-azabicyclo[3.3.0]octa-1,4,7-trien-8-ol]: the negative-log IC50 (pIC50) (in test [1]; with total ATXN3 protein) was 4.40 to 5.00 throughout.

Turning to `COc1c(C[C@H](C)N)sc2c(NCc3ccco3)snc12` [Compound 26, 5-[(2S)-2-aminopropyl]-N-(furan-2-ylmethyl)-6-methoxythieno[3,2-c][1,2]thiazol-3-amine], the pIC50 (in test [1]; in the test with total ATXN3 protein) was 5.00 to 5.30 throughout.

On to `C[C@H](N)Cc1sc2c(NCc3cccs3)snc2c1O` [Compound 27, 7-[(S)-2-aminopropyl]-4-thenylamino-3,6-dithia-2-azabicyclo[3.3.0]octa-1,4,7-trien-8-ol], for which the pIC50 (in test [1]; in the test with total ATXN3 protein) was 4.40 to 5.00 in each case.

`COc1c(C[C@H](C)N)sc2c(NCc3cccs3)snc12` [Compound 28, 7-[(S)-2-aminopropyl]-8-methoxy-4-thenylamino-3,6-dithia-2-azabicyclo[3.3.0]octa-1,4,7-triene]: the negative-log IC50 (pIC50) in test [1] was 5.00 to 5.30; in the test on total ATXN3 protein, 4.40 to 5.00.

With `C[C@H](N)Cc1sc2c(NCc3cccs3)snc2c1F` [Compound 30, 7-[(S)-2-aminopropyl]-8-fluoro-4-thenylamino-3,6-dithia-2-azabicyclo[3.3.0]octa-1,4,7-triene], the pIC50 was 5.00 to 5.30 in test [1] and 4.40 to 5.00 with total ATXN3 protein.

Take `C[C@H](N)Cc1sc2c(NCc3ccco3)snc2c1C1CC1` [Compound 31, 7-[(S)-2-aminopropyl]-8-cyclopropyl-4-(furfurylamino)-3,6-dithia-2-azabicyclo[3.3.0]octa-1,4,7-triene]: the pIC50 (in test [1]; in the test with total ATXN3 protein) was 5.00 to 5.30 throughout.

For `C[C@H](N)Cc1sc2c(NCc3cccs3)snc2c1C(F)(F)F` [Compound 35, 7-[(S)-2-aminopropyl]-4-thenylamino-8-(trifluoromethyl)-3,6-dithia-2-azabicyclo[3.3.0]octa-1,4,7-triene], the negative-log IC50 (pIC50) (in test [1]; with total ATXN3 protein) was 5.30 to 6.30 in each case.

As to `Cc1c(C[C@@H](N)CC(F)(F)F)sc2c(NCc3cccs3)snc12` [Compound 36, 7-[(S)-2-amino-4,4,4-trifluorobutyl]-8-methyl-4-thenylamino-3,6-dithia-2-azabicyclo[3.3.0]octa-1,4,7-triene], the pIC50 (in test [1]; with total ATXN3 protein) was 5.30 to 6.30 in each case.

On to `Cc1c(C[C@@H](N)CO)sc2c(NCc3cccs3)snc12` [Compound 37, (R)-2-amino-3-(8-methyl-4-thenylamino-3,6-dithia-2-azabicyclo[3.3.0]octa-1,4,7-trien-7-yl)-1-propanol], for which the negative logarithm of the IC50 (pIC50) (in test [1]; in the test on total ATXN3 protein) was 5.30 to 6.30 in each case.
